Measurements reported in patent publication US9994551B2, “Pyridazine derivatives as RORc modulators” (Genentech, Inc., priority 2015, dated 2018).

Target: T1, RORc ligand binding domain (Homo sapiens, UniProt P51449)
T1 construct: host or cells: E. coli
T1 sequence (P51449 269-508 limits assumed): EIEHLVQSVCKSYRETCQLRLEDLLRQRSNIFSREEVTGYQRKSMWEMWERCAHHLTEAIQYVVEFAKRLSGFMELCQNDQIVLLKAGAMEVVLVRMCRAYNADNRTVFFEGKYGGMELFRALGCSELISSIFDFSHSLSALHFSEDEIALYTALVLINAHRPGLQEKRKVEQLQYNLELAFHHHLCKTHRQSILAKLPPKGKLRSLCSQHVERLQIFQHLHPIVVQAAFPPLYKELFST
Test: In vitro RORc ligand binding assay (25-[3H]hydroxycholesterol displacement, filter binding)
Procedure: This assay was used to determine a compound's potency in inhibiting activity of RORc by determining, Kiapp, IC50, or percent inhibition values.
On day of the assay, 100 uL of 0.05% CHAPS (in deionized H2O) was added to all wells of the GFB Unifilter plate and allowed soak for 1 h. A wash buffer of 50 mM HEPES (pH 7.4), 150 mM NaCl, and 5 mM MgCl2 was prepared to wash the filter plate. To prepare an assay buffer, BSA was added to the wash buffer to reach 0.01% and DTT was added to reach 1 mM.
The 20× compound stocks were diluted in DMSO with Assay Buffer 4-fold to reach 5× the final test concentration in 25% DMSO (10 uL compound+30 uL Assay Buffer). Solutions were mixed by aspiration several times with a pipette set on 50 uL volume. For the assay, 10 uL of 5× compound stock solutions in 25% DMSO were added to the assay plate in duplicate.
For two point screening, 10 mM stock compound solutions were diluted in DMSO to obtain 200 uM (20× the high test concentration) and then diluted 10-fold further to reach 20 uM (20× the low test concentration). The 20× stocks were diluted 4-fold with Assay Buffer (10 uL compound+30 uL Assay Buffer) to reach 5× the test concentrations (50 uM and 5 uM) and 10 uL were added to two assay plates for the duplicate wells. With each concentration tested on 2 plates, each set of 80 compounds used 4 assay plates (1 uM and 10 uM, with n=2).
For 25-hydroxycholesterol in 25% DMSO/75% Assay Buffer; 10 uL per well was used for NSB samples. Wells for Total Binding and No Receptor sample determination contained 10 uL of 25% DMSO/75% Assay Buffer per well.
Add 20 uL to all wells to reach 6 nM final concentration in the assay.
Stock receptor solution was diluted in assay buffer to obtain 1.5 ug/mL in Assay Buffer. 20 uL was added to all wells. For No Receptor samples, 20 uL Assay Buffer was substituted for receptor solution.
Assay plates were 96-well polypropylene V-bottom plates. 10 uL of 5× compound in 25% DMSO/75% Assay Buffer was added to Test wells. 10 uL of 25% DMSO/75% Assay Buffer was added to Total Binding or No Receptor wells. 10 uL of 5 uM 25-hydroxycholesterol in 25% DMSO/75% Assay Buffer was added to NSB wells. […] 20 uL of 1.5 ug/mL RORc receptor was added to wells (or 40 uL Assay Buffer to No R wells). Following addition to the wells, the plates were incubated 3 h at 25° C.
Using a Packard Filtermate Harvester, the filter plate were washed 4 times following transfer of the incubated samples. Plates were dry-filtered completely (2 h at 50° C. or overnight at room temperature). 50 uL Microscint 0 was added to all wells and read on Topcount protocol Inverted.

Question: Which IC50 does the source give for CC1(C)[C@H]2CC[C@]1([C@@H]1CNCCO1)c1nnc(-c3c(F)cccc3F)cc12 [Compound 66, (R)-2-((5R,8R)-3-(2,6-difluorophenyl)-9,9-dimethyl-5,6,7,8-tetrahydro-5,8-methanocinnolin-8-yl)morpholine] here?
Answer: Its IC50 is 458 nM.

Question: For CC1(C)[C@H]2CC[C@]1(OS(=O)(=O)C(F)(F)F)c1nnc(-c3c(F)cccc3F)cc12 [Compound 6, (5S,8R)-3-(2,6-difluorophenyl)-9,9-dimethyl-5,6,7,8-tetrahydro-5,8-methanocinnolin-8-yl trifluoromethanesulfonate], which IC50 is on record?
Answer: Its IC50 is 6 nM.

Question: CC[C@H](O[C@@]12CC[C@@H](c3cc(-c4c(F)cccc4F)nnc31)C2(C)C)C(=O)OC [Compound 110, methyl (2S)-2-[[(1R,8S)-5-(2,6-difluorophenyl)-11,11-dimethyl-3,4-diazatricyclo[6.2.1.02,7]undeca-2,4,6-trien-1-yl]oxy]butanoate] was tested. Which IC50 did it give?
Answer: The IC50 was 100 nM.

Question: With CNC(=O)c1nnc([C@@]23CC[C@@H](c4cc(-c5c(F)cccc5F)nnc42)C3(C)C)o1 [Compound 3, 5-((5R,8R)-3-(2,6-difluorophenyl)-9,9-dimethyl-5,6,7,8-tetrahydro-5,8-methanocinnolin-8-yl)-N-methyl-1,3,4-oxadiazole-2-carboxamide] as the compound, how does the IC50 read?
Answer: Its IC50 is 283 nM.

Question: For CCOC(=O)c1coc(N2CCO[C@@H]([C@@]34CC[C@@H](c5cc(-c6c(F)cccc6F)nnc53)C4(C)C)C2)n1 [Compound 127, ethyl 2-[2-[5-(2,6-difluorophenyl)-11,11-dimethyl-3,4-diazatricyclo[6.2.1.02,7]undeca-2,4,6-trien-1-yl]morpholin-4-yl]oxazole-4-carboxylate], which IC50 is on record?
Answer: Its IC50 is 5 nM.

Question: For CC[C@@H](O[C@@]12CC[C@@H](c3cc(-c4c(F)cccc4F)nnc31)C2(C)C)C(=O)OC [Compound 112, methyl (2R)-2-[[(1R,8S)-5-(2,6-difluorophenyl)-11,11-dimethyl-3,4-diazatricyclo[6.2.1.02,7]undeca-2,4,6-trien-1-yl]oxy]butanoate], which IC50 is on record?
Answer: The IC50 was 12 nM.

Question: Which IC50 does the source give for CC1(C)[C@H]2CC[C@]1(Oc1cc[nH]c(=O)c1)c1nnc(-c3c(F)cccc3F)cc12 [Compound 34, 4-(((5S,8R)-3-(2,6-difluorophenyl)-9,9-dimethyl-5,6,7,8-tetrahydro-5,8-methanocinnolin-8-yl)oxy)pyridin-2(1H)-one] here?
Answer: The IC50 was 202 nM.

Question: For CC1(C)[C@H]2CC[C@]1([C@H]1CN(c3ccccn3)CCO1)c1nnc(-c3c(F)cccc3F)cc12 [Compound 82, (S)-2-((5R,8R)-3-(2,6-difluorophenyl)-9,9-dimethyl-5,6,7,8-tetrahydro-5,8-methanocinnolin-8-yl)-4-(pyridin-2-yl)morpholine], which IC50 is on record?
Answer: Its IC50 is 16.7 nM.

Question: CC[C@@H](O[C@@]12CC[C@@H](c3cc(-c4c(F)cccc4F)nnc31)C2(C)C)C(=O)NCCCO [Compound 105, (R)-2-(((5S,8R)-3-(2,6-difluorophenyl)-9,9-dimethyl-5,6,7,8-tetrahydro-5,8-methanocinnolin-8-yl)oxy)-N-(3-hydroxypropyl)butanamide] was tested. Which IC50 did it give?
Answer: Its IC50 is 33.9 nM.

Question: Which IC50 does the source give for CC1(C)[C@H]2CC[C@]1(Oc1ccccn1)c1nnc(-c3c(F)cccc3F)cc12 [Compound 12, (5S,8R)-3-(2,6-difluorophenyl)-9,9-dimethyl-8-(pyridin-2-yloxy)-5,6,7,8-tetrahydro-5,8-methanocinnoline] here?
Answer: Its IC50 is 42.5 nM.

Question: With CC(C)(C)OC(=O)N1CCNC[C@H]1[C@@]12CC[C@@H](c3cc(-c4c(F)cccc4F)nnc31)C2(C)C [Compound 115, tert-butyl 2-[5-(2,6-difluorophenyl)-11,11-dimethyl-3,4-diazatricyclo[6.2.1.02,7]undeca-2,4,6-trien-1-yl]piperazine-1-carboxylate] as the compound, how does the IC50 read?
Answer: Its IC50 is 3.1 nM.

Question: CC1(C)[C@H]2CC[C@]1([C@H]1CN(C(=O)c3cnco3)CCO1)c1nnc(-c3c(F)cccc3F)cc12 [Compound 94, ((S)-2-((5R,8R)-3-(2,6-difluorophenyl)-9,9-dimethyl-5,6,7,8-tetrahydro-5,8-methanocinnolin-8-yl)morpholino)(oxazol-5-yl)methanone] was tested. Which IC50 did it give?
Answer: The IC50 was 76.3 nM.

Question: Which IC50 does the source give for CC(C)(O)CNC(=O)CO[C@@]12CC[C@@H](c3cc(-c4c(F)cccc4F)nnc31)C2(C)C [Compound 48, 2-(((5S,8R)-3-(2,6-difluorophenyl)-9,9-dimethyl-5,6,7,8-tetrahydro-5,8-methanocinnolin-8-yl)oxy)-N-(2-hydroxy-2-methylpropyl)acetamide] here?
Answer: The IC50 was 95.2 nM.

Question: Which IC50 does the source give for CC1(C)[C@H]2CC[C@]1([C@H]1CN(c3nc(CO)co3)CCO1)c1nnc(-c3c(F)cccc3F)cc12 [Compound 128, [2-[2-[5-(2,6-difluorophenyl)-11,11-dimethyl-3,4-diazatricyclo[6.2.1.02,7]undeca-2,4,6-trien-1-yl]morpholin-4-yl]oxazol-4-yl]methanol] here?
Answer: Its IC50 is 37 nM.

Question: With CC[C@@H](O[C@@]12CC[C@@H](c3cc(-c4c(F)cccc4F)nnc31)C2(C)C)C(=O)N(C)C [Compound 36, (R)-2-(((5S,8R)-3-(2,6-difluorophenyl)-9,9-dimethyl-5,6,7,8-tetrahydro-5,8-methanocinnolin-8-yl)oxy)-N,N-dimethylbutanamide] as the compound, how does the IC50 read?
Answer: The IC50 was 54.3 nM.

Question: Which IC50 does the source give for CC1(C)[C@H]2CC[C@]1([C@H]1CCCN(C(=O)c3c[nH]c(=O)cn3)C1)c1nnc(-c3c(F)cccc3F)cc12 [Compound 121, 5-[3-[5-(2,6-difluorophenyl)-11,11-dimethyl-3,4-diazatricyclo[6.2.1.02,7]undeca-2,4,6-trien-1-yl]piperidine-1-carbonyl]-1H-pyrazin-2-one] here?
Answer: The IC50 was 11 nM.

Question: For CC1(C)[C@H]2CC[C@]1([C@H]1CCCN(c3ccccn3)C1)c1nnc(-c3c(F)cccc3F)cc12 [Compound 163, 5-(2,6-difluorophenyl)-11,11-dimethyl-1-[1-(2-pyridyl)-3-piperidyl]-3,4-diazatricyclo[6.2.1.02,7]undeca-2,4,6-triene], which IC50 is on record?
Answer: Its IC50 is 27 nM.

Question: Which IC50 does the source give for CC1(C)[C@H]2CC[C@]1(OC(=O)N1CCC1)c1nnc(-c3c(F)cccc3F)cc12 [Compound 10, (5S,8R)-3-(2,6-difluorophenyl)-9,9-dimethyl-5,6,7,8-tetrahydro-5,8-methanocinnolin-8-yl azetidine-1-carboxylate] here?
Answer: The IC50 was 353 nM.

Question: Which IC50 does the source give for CC1(C)[C@H]2CC[C@]1([C@H]1CNCCO1)c1nnc(-c3c(F)cccc3F)cc12 [Compound 70, (S)-2-((5R,8R)-3-(2,6-difluorophenyl)-9,9-dimethyl-5,6,7,8-tetrahydro-5,8-methanocinnolin-8-yl)morpholine] here?
Answer: Its IC50 is 367 nM.

Question: C[C@H](O)CNC(=O)N1CCC[C@H]([C@@]23CC[C@@H](c4cc(-c5c(F)cccc5F)nnc42)C3(C)C)C1 [Compound 151, 3-[5-(2,6-difluorophenyl)-11,11-dimethyl-3,4-diazatricyclo[6.2.1.02,7]undeca-2,4,6-trien-1-yl]-N-(2-hydroxypropyl)piperidine-1-carboxamide] was tested. Which IC50 did it give?
Answer: The IC50 was 7.7 nM.

Question: With CC(=O)N1CCO[C@H]([C@@]23CC[C@@H](c4cc(-c5c(F)cccc5F)nnc42)C3(C)C)C1 [Compound 64, 1-((R)-2-((5R,8R)-3-(2,6-difluorophenyl)-9,9-dimethyl-5,6,7,8-tetrahydro-5,8-methanocinnolin-8-yl)morpholino)ethanone] as the compound, how does the IC50 read?
Answer: The IC50 was 308 nM.

Question: For CC1(C)[C@H]2CC[C@]1(OCc1cnccn1)c1nnc(-c3c(F)cccc3F)cc12 [Compound 17, (5S,8R)-3-(2,6-difluorophenyl)-9,9-dimethyl-8-(pyrazin-2-ylmethoxy)-5,6,7,8-tetrahydro-5,8-methanocinnoline], which IC50 is on record?
Answer: The IC50 was 133 nM.

Question: Which IC50 does the source give for CC1(C)[C@H]2CC[C@]1([C@H]1CN(C(N)=O)CCO1)c1nnc(-c3c(F)cccc3F)cc12 [Compound 81, (S)-2-((5R,8R)-3-(2,6-difluorophenyl)-9,9-dimethyl-5,6,7,8-tetrahydro-5,8-methanocinnolin-8-yl)morpholine-4-carboxamide] here?
Answer: The IC50 was 66.2 nM.

Question: C[C@@H](O)CNC(=O)N1CCC[C@H]([C@@]23CC[C@@H](c4cc(-c5c(F)cccc5F)nnc42)C3(C)C)C1 [Compound 154, 3-[5-(2,6-difluorophenyl)-11,11-dimethyl-3,4-diazatricyclo[6.2.1.02,7]undeca-2,4,6-trien-1-yl]-N-(2-hydroxypropyl)piperidine-1-carboxamide] was tested. Which IC50 did it give?
Answer: The IC50 was 15 nM.
